# Experimental data taken from patent EP2401611B1, “IMPROVED METHODS FOR IDENTIFICATION” (Cambridge Enterprise Limited, priority 2009, dated 2010).
# System: TNF-alpha
# Assay: Sub-lethal endotoxemia model (LPS challenge, serum TNF-alpha)
# Assay type: in vivo, mouse
# Details: very high / highest doses
# Protocol: We selected the sub-lethal endotoxemia model in mouse, because this has been well characterised in our laboratory (see for example Fox et al. (2002) J. Med. Chem. 45:360-70; Fox et al. (2005) J. Med. Chem. 48:867-74). The extent of systemic inflammation in response to a single intraperitoneal injection of bacterial lipopolysaccharide (LPS) can be estimated by measuring serum TNF-alpha 2 hours post challenge.
# Methods: Mice (CD1 strain; adult males; 6 per group) were treated with BSCI (in an appropriate vehicle) or with vehicle alone by an appropriate route. […] Simultaneously, one set of mice at each BSCI concentration received BIM 23627 at 4mg/animal (120mg/kg) by sub-cutaneous injection (a treatment condition known to suppress classical sstr2-mediated signalling, such as GH release, in rats; Tulipano et al. (2002) 143:1218-24). Between 30mins and 1hour after dosing (a period when a maximal plasma concentration of BSCI has been achieved), the inflammatory challenge was elicited by intraperitoneal injection of 750µg of LPS (Sigma; L4130 lot#024K4077; 900,000 EU/mg).
# After a further 2 hours, the animals were sacrificed by CO2 asphyxiation, and blood was drawn by cardiac puncture. Serum was prepared by conventional methods, and the level of TNF-alpha in serum was measured using an ELISA (R&D Systems; Murine Quantikine code# MTA00) performed in accordance with the manufacturer's instructions.
smiles,measurement,value
C[C@@H]1C[C@H]2[C@@H]3CCC4=CC(=O)C=C[C@]4(C)[C@@]3(F)[C@@H](O)C[C@]2(C)[C@@]1(O)C(=O)CO [dexamethasone],inhibition of TNF-alpha,more than 90%
